Measurements reported in the SangsterLogP compilation.

Test: method code SF-AS, from PMID: 6637504
Details: pH 5.0

Compound	logD
O=c1c2ccccc2nc2n1CCC2	1.07
O=c1c2c(nc3n1CCC3)CCCCC2	1.25
O=c1c2c(nc3ccccn13)CCC2	1.19
CC1CCn2c(nc3c(c2=O)CCC3)C1 (stereo not drawn)	1.22
O=c1c2c(nc3n1CCC3)CCCCCC2	1.41
CCc1c(C)nc2cc(C)cc(C)n2c1=O	1.8
CC1CCCc2nc3c(c(=O)n21)CCC3 (stereo not drawn)	1.21
CC1CCc2nc3c(c(=O)n2C1)CCC3 (stereo not drawn)	1.2
Cc1cccn2c(=O)c3c(nc12)CCC3	1.72
O=c1c2c(nc3n1CCCCCC3)CCCCCC2	2.77
CCCc1c(C)nc2ccccn2c1=O	1.85
O=c1c2c(nc3n1CCCC3)CCC2	0.72
O=c1c2c(nc3n1CCC3)CCCC2	0.83
